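Tested at 5 concentrations; 48 h exposure; 96-well plates; endpoints linearly interpolated, else capped at highest concentration. GI50 is the concentration that inhibits growth by half.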 The source made the active and inactive calls. Rule as the data show it: active = GI50 up to about 1.1 µM and inactive = higher.
Experiments:
Assay in all cases: growth of human tumour cells (NCI), 48 h
RXF 393 = tested on: RXF 393
IGROV-1 = tested on: IGROV-1
MDA-N = tested on: MDA-N
A549 = tested on: A549
Malme-3M = tested on: Malme-3M
NCI-H226 = tested on: NCI-H226
SK-MEL-2 = tested on: SK-MEL-2
DU-145 = tested on: DU-145
LOX IMVI = tested on: LOX IMVI
ACHN = tested on: ACHN
NCI-H23 = tested on: NCI-H23
M14 = tested on: M14
SK-MEL-5 = tested on: SK-MEL-5
PC-3 = tested on: PC-3
A498 = tested on: A498
OVCAR-4 = tested on: OVCAR-4
EKVX = tested on: EKVX
COLO 205 = tested on: COLO 205
SF-295 = tested on: SF-295
UACC-257 = tested on: UACC-257
HCC 2998 = tested on: HCC 2998
HCT-15 = tested on: HCT-15
T47D = tested on: T47D
SNB-19 = tested on: SNB-19
SF-268 = tested on: SF-268
MDA-MB-231 = tested on: MDA-MB-231
TK-10 = tested on: TK-10
OVCAR-3 = tested on: OVCAR-3
SN12C = tested on: SN12C
UACC-62 = tested on: UACC-62
U-251 = tested on: U-251
SR = tested on: SR
MOLT-4 = tested on: MOLT-4
SK-OV-3 = tested on: SK-OV-3
SF-539 = tested on: SF-539
NCI/ADR-RES = tested on: NCI/ADR-RES
CAKI-1 = tested on: CAKI-1
SK-MEL-28 = tested on: SK-MEL-28
Hs-578T = tested on: Hs-578T
MDA-MB-435 = tested on: MDA-MB-435
NCI-H460 = tested on: NCI-H460
HL-60 = tested on: HL-60
HCT-116 = tested on: HCT-116
K562 = tested on: K562
NCI-H522 = tested on: NCI-H522
HT-29 = tested on: HT-29
786-0 = tested on: 786-0
OVCAR-5 = tested on: OVCAR-5
SW-620 = tested on: SW-620
HOP-92 = tested on: HOP-92
RPMI-8226 = tested on: RPMI-8226
HOP-62 = tested on: HOP-62
KM12 = tested on: KM12
UO-31 = tested on: UO-31
MCF7 = tested on: MCF7
OVCAR-8 = tested on: OVCAR-8
SNB-75 = tested on: SNB-75

For `O=C1C=C2CCC[C@H]3OC(=O)C[C@@]23CC1`, the GI50 (RXF 393) was > 100 µM (inactive), the GI50 (IGROV-1) was > 100 µM (inactive) and the GI50 (MDA-N) was > 100 µM (inactive). The GI50 (A549) was > 100 µM (inactive), the GI50 (Malme-3M) was > 100 µM (inactive) and the GI50 (NCI-H226) was > 100 µM (inactive). For the same compound, the GI50 (SK-MEL-2) was > 100 µM (inactive), the GI50 (DU-145) was > 100 µM (inactive) and the GI50 (LOX IMVI) was > 100 µM (inactive). The GI50 (ACHN) was > 100 µM (inactive), the GI50 (NCI-H23) was > 100 µM (inactive) and the GI50 (M14) was > 100 µM (inactive). For the same compound, the GI50 (SK-MEL-5) was > 100 µM (inactive), the GI50 (PC-3) was > 100 µM (inactive) and the GI50 (A498) was > 100 µM (inactive). For the same compound, the GI50 (OVCAR-4) was > 100 µM (inactive), the GI50 (EKVX) was > 100 µM (inactive) and the GI50 (COLO 205) was > 100 µM (inactive). For the same compound, the GI50 (SF-295) was > 100 µM (inactive), the GI50 (UACC-257) was > 100 µM (inactive) and the GI50 (HCC 2998) was > 100 µM (inactive). The GI50 (HCT-15) was > 100 µM, the GI50 (T47D) was > 100 µM (inactive) and the GI50 (SNB-19) was > 100 µM (inactive). The GI50 (SF-268) was > 100 µM (inactive), the GI50 (MDA-MB-231) was > 100 µM (inactive) and the GI50 (TK-10) was > 100 µM (inactive). For the same compound, the GI50 (OVCAR-3) was > 100 µM (inactive), the GI50 (SN12C) was > 100 µM (inactive) and the GI50 (UACC-62) was > 100 µM (inactive). For the same compound, the GI50 (U-251) was > 100 µM (inactive), the GI50 (SR) was > 100 µM (inactive) and the GI50 (MOLT-4) was > 100 µM (inactive). For the same compound, the GI50 (SK-OV-3) was > 100 µM (inactive), the GI50 (SF-539) was > 100 µM (inactive) and the GI50 (NCI/ADR-RES) was > 100 µM (inactive). For the same compound, the GI50 (CAKI-1) was > 100 µM (inactive), the GI50 (SK-MEL-28) was > 100 µM (inactive) and the GI50 (Hs-578T) was > 100 µM (inactive). For the same compound, the GI50 (MDA-MB-435) was > 100 µM (inactive), the GI50 (NCI-H460) was > 100 µM (inactive) and the GI50 (HL-60) was > 100 µM (inactive). For the same compound, the GI50 (HCT-116) was > 100 µM (inactive), the GI50 (K562) was > 100 µM (inactive) and the GI50 (NCI-H522) was > 100 µM (inactive). For the same compound, the GI50 (HT-29) was > 100 µM (inactive), the GI50 (786-0) was > 100 µM (inactive) and the GI50 (OVCAR-5) was > 100 µM (inactive). The GI50 (SW-620) was > 100 µM (inactive), the GI50 (HOP-92) was > 100 µM (inactive) and the GI50 (RPMI-8226) was > 100 µM (inactive). For the same compound, the GI50 (HOP-62) was > 100 µM (inactive) and the GI50 (KM12) was > 100 µM (inactive).

`CCCNC1=NC(C)=CSC(Nc2ccccc2)=C1C#N` was tested, and the GI50 (RXF 393) was > 100 µM (inactive), the GI50 (MDA-N) was > 100 µM (inactive) and the GI50 (A549) was > 100 µM (inactive). The GI50 (Malme-3M) was > 100 µM (inactive), the GI50 (SK-MEL-2) was > 100 µM (inactive) and the GI50 (DU-145) was > 100 µM (inactive). For the same compound, the GI50 (ACHN) was > 100 µM (inactive), the GI50 (NCI-H23) was > 100 µM (inactive) and the GI50 (UO-31) was > 100 µM (inactive). For the same compound, the GI50 (M14) was > 100 µM (inactive), the GI50 (SK-MEL-5) was > 100 µM (inactive) and the GI50 (PC-3) was > 100 µM (inactive). For the same compound, the GI50 (A498) was > 100 µM (inactive), the GI50 (OVCAR-4) was > 100 µM (inactive) and the GI50 (COLO 205) was > 100 µM (inactive). The GI50 (SF-295) was > 100 µM (inactive), the GI50 (MCF7) was > 100 µM (inactive) and the GI50 (HCT-15) was > 100 µM. The GI50 (T47D) was > 100 µM (inactive), the GI50 (SNB-19) was > 100 µM (inactive) and the GI50 (SF-268) was > 100 µM (inactive). The GI50 (MDA-MB-231) was > 100 µM (inactive), the GI50 (TK-10) was > 100 µM (inactive) and the GI50 (OVCAR-3) was > 100 µM (inactive). The GI50 (SN12C) was > 100 µM (inactive), the GI50 (UACC-62) was > 100 µM (inactive) and the GI50 (U-251) was > 100 µM (inactive). For the same compound, the GI50 (SR) was > 100 µM (inactive), the GI50 (MOLT-4) was > 100 µM (inactive) and the GI50 (SK-OV-3) was > 100 µM (inactive). For the same compound, the GI50 (SF-539) was > 100 µM (inactive), the GI50 (NCI/ADR-RES) was > 100 µM (inactive) and the GI50 (CAKI-1) was > 100 µM (inactive). For the same compound, the GI50 (SK-MEL-28) was > 100 µM (inactive), the GI50 (MDA-MB-435) was > 100 µM (inactive) and the GI50 (HCT-116) was > 100 µM (inactive). The GI50 (K562) was > 100 µM (inactive), the GI50 (NCI-H522) was > 100 µM (inactive) and the GI50 (OVCAR-8) was > 100 µM (inactive). For the same compound, the GI50 (786-0) was > 100 µM (inactive), the GI50 (OVCAR-5) was > 100 µM (inactive) and the GI50 (SW-620) was > 100 µM (inactive). The GI50 (RPMI-8226) was > 100 µM (inactive), the GI50 (HOP-62) was > 100 µM (inactive) and the GI50 (KM12) was > 100 µM (inactive).

With `CN(Cc1cnc2nc(N)nc(N)c2n1)c1ccc(C(=O)NC(CCC(=O)NCC(P(=O)(O)O)P(=O)(O)O)C(=O)O)cc1` (stereo unspecified) the GI50 (IGROV-1) was 9.04 µM (inactive), the GI50 (MDA-N) was 4.97 µM (inactive) and the GI50 (A549) was 4.99 µM (inactive). For the same compound, the GI50 (Malme-3M) was > 100 µM (inactive), the GI50 (SK-MEL-2) was > 100 µM (inactive) and the GI50 (DU-145) was 7.16 µM (inactive). The GI50 (LOX IMVI) was 2.52 µM (inactive), the GI50 (ACHN) was 3.57 µM (inactive) and the GI50 (M14) was 6.01 µM (inactive). For the same compound, the GI50 (SK-MEL-5) was 13.3 µM (inactive), the GI50 (PC-3) was 0.436 µM (active) and the GI50 (OVCAR-4) was 1.64 µM (inactive). For the same compound, the GI50 (EKVX) was > 100 µM (inactive), the GI50 (COLO 205) was > 100 µM (inactive) and the GI50 (SF-295) was 0.706 µM (active). The GI50 (UACC-257) was 12.6 µM (inactive), the GI50 (HCT-15) was 5.94 µM and the GI50 (T47D) was 40 µM (inactive). The GI50 (SF-268) was 6.11 µM (inactive), the GI50 (MDA-MB-231) was > 100 µM (inactive) and the GI50 (OVCAR-3) was 23 µM (inactive). The GI50 (SN12C) was 7.21 µM (inactive), the GI50 (UACC-62) was 4.41 µM (inactive) and the GI50 (SR) was < 0.01 µM (active). For the same compound, the GI50 (MOLT-4) was 3.18 µM (inactive), the GI50 (SK-OV-3) was 15.7 µM (inactive) and the GI50 (NCI/ADR-RES) was 35.5 µM (inactive). For the same compound, the GI50 (Hs-578T) was 37.1 µM (inactive), the GI50 (NCI-H460) was 4.4 µM (inactive) and the GI50 (HCT-116) was 0.815 µM (active). For the same compound, the GI50 (NCI-H522) was 20.2 µM (inactive), the GI50 (HT-29) was 5.27 µM (inactive) and the GI50 (OVCAR-8) was 7.6 µM (inactive). For the same compound, the GI50 (786-0) was 81.1 µM (inactive), the GI50 (SW-620) was 4.7 µM (inactive) and the GI50 (SNB-75) was 57.3 µM (inactive). The GI50 (HOP-92) was < 0.01 µM (active) and the GI50 (HOP-62) was 5.11 µM (inactive).

Source: ChEMBL document CHEMBL1201862, “PubChem BioAssay data set” (2004)
